Test results published in PubChem BioAssay (NCI).
Where “and” joins values, the source holds several entries; their conditions need not be identical. Equal entries are not always repeated.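 Growth conditions: 96-well plates. Treatment: test compound, 48 hours, 5 concentrations. Analysis: linear interpolation between bracketing concentrations; unreached endpoints set to highest concentration. At the GI50, growth is halved. The concentration for full growth arrest is given as TGI.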

Experiments:
Test in all cases: inhibition of tumour cell growth, NCI panel, 48 h
[1] = system: SW-620 colon
[2] = system: OVCAR-5 ovarian
[3] = system: RPMI-8226 leukemia
[4] = system: IGROV1 ovarian
[5] = system: MDA-MB-231 breast
[6] = system: SK-MEL-2 melanoma
[7] = system: HS 578T breast
[8] = system: A549 NSCLC
[9] = system: UACC-62 melanoma
[10] = system: ACHN renal
[11] = system: TK-10 renal
[12] = system: T-47D breast
[13] = system: CAKI-1 renal
[14] = system: MALME-3M melanoma
[15] = system: K-562 leukemia
[16] = system: MDA-N
[17] = system: EKVX NSCLC
[18] = system: DLD-1 colon
[19] = system: UACC-257 melanoma
[20] = system: SK-MEL-28 melanoma
[21] = system: CCRF-CEM leukemia
[22] = system: BT-549 breast
[23] = system: MOLT-4 leukemia
[24] = system: SNB-78 CNS
[25] = system: HT29 colon
[26] = system: DU-145 prostate
[27] = system: HOP-62 NSCLC
[28] = system: SNB-19 CNS
[29] = system: SN12C renal
[30] = system: 786-0 renal
[31] = system: PC-3 prostate
[32] = system: HOP-18 NSCLC
[33] = system: SNB-75 CNS
[34] = system: HCC-2998 colon
[35] = system: HCT-15 colon
[36] = system: OVCAR-3 ovarian
[37] = system: LOX IMVI melanoma
[38] = system: COLO 205 colon
[39] = system: SK-MEL-5 melanoma
[40] = system: M14 melanoma
[41] = system: RXF 393 renal
[42] = system: SF-539 CNS
[43] = system: NCI-H23 lung
[44] = system: MDA-MB-435
[45] = system: OVCAR-8 ovarian
[46] = system: NCI/ADR-RES ovarian
[47] = system: NCI-H226 lung
[48] = system: U251 CNS
[49] = system: SK-OV-3 ovarian
[50] = system: HL-60(TB) leukemia
[51] = system: SF-268 CNS
[52] = system: KM12 colon
[53] = system: MCF7 breast
[54] = system: NCI-H460 lung
[55] = system: OVCAR-4 ovarian
[56] = system: A498 renal
[57] = system: HOP-92 NSCLC
[58] = system: NCI-H522 lung
[59] = system: SR leukemia
[60] = system: HCT-116 colon
[61] = system: UO-31 renal
[62] = system: SF-295 CNS

SMILES: COc1ccc(/C=C\c2cc(OC)c(OC)c(OC)c2)cc1OP(=O)(O)O
- TGI [1]: > 100 µM and 50 µM
- TGI [2]: > 100 µM
- TGI [3]: 25.1 µM and 50 µM and > 100 µM
- TGI [4]: > 100 µM and 50 µM
- TGI [5]: > 12.1 µM
- TGI [6]: 0.0169 µM and 0.0953 µM
- GI50 [7]: 13.2 µM
- TGI [8]: > 100 µM and 50 µM
- TGI [9]: > 100 µM and 50 µM and > 64.3 µM
- TGI [10]: > 100 µM and 50 µM and > 65 µM
- TGI [11]: > 100 µM
- GI50 [12]: 20.7 µM
- TGI [13]: > 67.5 µM and 50 µM and > 100 µM
- TGI [14]: > 100 µM and 24.5 µM and > 89 µM
- TGI [15]: 50 µM and > 100 µM
- GI50 [16]: < 0.0001 µM
- TGI [17]: > 100 µM and 50 µM
- TGI [18]: > 100 µM and 50 µM
- TGI [19]: 88.9 µM and 50 µM and > 100 µM
- TGI [20]: > 100 µM and 50 µM
- TGI [21]: > 100 µM
- TGI [22]: > 100 µM
- TGI [23]: > 100 µM and 50 µM
- TGI [24]: > 100 µM and 50 µM
- GI50 [25]: 0.486 µM and 3.89 µM
- GI50 [26]: 0.609 µM
- TGI [26]: 0.356 µM and 0.371 µM
- GI50 [27]: 11.9 µM
- TGI [27]: > 100 µM and 50 µM and > 76.1 µM
- TGI [28]: > 100 µM
- TGI [29]: > 100 µM and 50 µM
- TGI [30]: > 100 µM
- TGI [31]: > 100 µM
- GI50 [32]: > 100 µM
- TGI [32]: > 100 µM
- TGI [33]: 50 µM and > 100 µM
- GI50 [34]: 0.929 µM

SMILES: CCOC(=O)c1cc(-c2ccc(OC)c(OC)c2)c[nH]1
- TGI [35]: > 10 µM
- TGI [2]: > 10 µM
- TGI [3]: > 10 µM
- TGI [36]: > 10 µM
- TGI [4]: > 10 µM
- TGI [37]: > 10 µM
- TGI [38]: > 10 µM
- TGI [39]: > 10 µM
- TGI [5]: > 10 µM
- TGI [40]: > 10 µM
- TGI [6]: > 10 µM
- TGI [7]: > 10 µM
- TGI [8]: > 10 µM
- TGI [9]: > 10 µM
- TGI [10]: > 10 µM
- TGI [11]: > 10 µM
- TGI [12]: > 10 µM
- TGI [41]: > 10 µM
- TGI [42]: > 10 µM
- TGI [43]: > 10 µM
- TGI [13]: > 10 µM
- TGI [44]: > 10 µM
- TGI [45]: > 10 µM
- TGI [46]: > 10 µM
- TGI [14]: > 10 µM
- TGI [15]: > 10 µM
- TGI [47]: > 10 µM
- TGI [16]: > 10 µM
- TGI [48]: > 10 µM
- TGI [17]: > 10 µM
- TGI [49]: > 10 µM
- TGI [50]: > 10 µM
- TGI [51]: > 10 µM
- TGI [19]: > 10 µM
- TGI [20]: > 10 µM
- TGI [52]: > 10 µM
- TGI [21]: > 10 µM
- TGI [53]: > 10 µM
- TGI [22]: > 10 µM
- TGI [23]: > 10 µM
- TGI [54]: > 10 µM
- TGI [55]: > 10 µM
- TGI [56]: > 10 µM
- TGI [57]: > 10 µM
- TGI [25]: > 10 µM
- TGI [58]: > 10 µM
- TGI [26]: > 10 µM
- TGI [27]: > 10 µM
- TGI [28]: > 10 µM
- TGI [29]: > 10 µM
- TGI [30]: > 10 µM
- TGI [59]: > 10 µM
- TGI [60]: > 10 µM
- TGI [31]: > 10 µM
- TGI [33]: > 10 µM
- TGI [61]: > 10 µM
- TGI [62]: > 10 µM
- TGI [34]: > 10 µM

SMILES: COc1cc2oc3ccccc3c(=O)c2cc1CSc1ccccc1N
- TGI [1]: > 100 µM
- TGI [35]: > 100 µM
- TGI [2]: > 100 µM
- TGI [3]: > 87.6 µM
- TGI [36]: > 68.1 µM
- TGI [4]: > 100 µM
- TGI [37]: > 100 µM
- TGI [38]: > 95.6 µM
- TGI [39]: > 74 µM
- TGI [5]: > 100 µM
- TGI [40]: > 100 µM
- TGI [6]: > 77.6 µM
- TGI [7]: > 100 µM
- TGI [8]: > 100 µM
- TGI [9]: > 66.9 µM
- TGI [10]: > 100 µM
- TGI [11]: > 100 µM
- TGI [12]: 27.8 µM
- TGI [41]: > 45.5 µM
- TGI [42]: > 100 µM
- TGI [43]: > 100 µM
- TGI [13]: > 100 µM
- TGI [44]: 8.93 µM
- TGI [45]: > 100 µM
- TGI [46]: > 70.9 µM
- TGI [14]: > 79.5 µM
- TGI [15]: > 100 µM
- TGI [47]: > 100 µM
- TGI [16]: > 100 µM
- TGI [48]: > 100 µM
- TGI [17]: > 100 µM
- TGI [49]: > 100 µM
- TGI [50]: 64.8 µM
- TGI [51]: > 100 µM
- TGI [19]: > 100 µM
- TGI [20]: 98.2 µM
- TGI [52]: 84 µM
- TGI [21]: 45.6 µM
- TGI [53]: > 100 µM
- TGI [22]: > 100 µM
- TGI [23]: 26.1 µM
- TGI [54]: > 100 µM
- TGI [55]: > 100 µM
- TGI [56]: > 73.5 µM
- TGI [57]: > 100 µM
- TGI [25]: > 100 µM
- TGI [58]: 41.1 µM
- TGI [26]: > 84.9 µM
- TGI [27]: > 93.3 µM
- TGI [28]: > 100 µM
- TGI [29]: > 100 µM
- TGI [30]: > 100 µM
- TGI [59]: 28.3 µM
- TGI [60]: > 100 µM
- TGI [31]: > 100 µM
- TGI [33]: > 100 µM
- TGI [62]: > 100 µM
- TGI [34]: 29.3 µM
